Data reported in ChEMBL document CHEMBL3638724, “Selective androgen receptor modulators” (2015).
pIC50: −log10 of the molar value.

These compounds were tested against T1, Androgen receptor (Homo sapiens, UniProt P10275) (assay: The assay was performed as specified by the manufacturer (Invitrogen, Madison, Wis.). Briefly, 1 ul of 10 mM compound was added to 500 ul of AR screening buffer in a 1.5 ml eppendorf tube to make a 2x10-5M stock. 10-fold serial dilutions of the test compounds were prepared ranging in concentration from 10^-5M to 10-12M. Each dilution was added in triplicate to a black 384-microtiter plate. The test compounds will be diluted 2-fold in the final reaction. 2xAR-Fluormone complex was prepared with 2 nM Flourmone AL Green and 30 nM AR. 25 ul of 2x complex was aliquoted to each reaction well, such that the final reaction volume was 50 ul per well. The plate was sealed with a foil cover and incubated in the dark at room temperature.).
T1 sequence (P10275 whole entry): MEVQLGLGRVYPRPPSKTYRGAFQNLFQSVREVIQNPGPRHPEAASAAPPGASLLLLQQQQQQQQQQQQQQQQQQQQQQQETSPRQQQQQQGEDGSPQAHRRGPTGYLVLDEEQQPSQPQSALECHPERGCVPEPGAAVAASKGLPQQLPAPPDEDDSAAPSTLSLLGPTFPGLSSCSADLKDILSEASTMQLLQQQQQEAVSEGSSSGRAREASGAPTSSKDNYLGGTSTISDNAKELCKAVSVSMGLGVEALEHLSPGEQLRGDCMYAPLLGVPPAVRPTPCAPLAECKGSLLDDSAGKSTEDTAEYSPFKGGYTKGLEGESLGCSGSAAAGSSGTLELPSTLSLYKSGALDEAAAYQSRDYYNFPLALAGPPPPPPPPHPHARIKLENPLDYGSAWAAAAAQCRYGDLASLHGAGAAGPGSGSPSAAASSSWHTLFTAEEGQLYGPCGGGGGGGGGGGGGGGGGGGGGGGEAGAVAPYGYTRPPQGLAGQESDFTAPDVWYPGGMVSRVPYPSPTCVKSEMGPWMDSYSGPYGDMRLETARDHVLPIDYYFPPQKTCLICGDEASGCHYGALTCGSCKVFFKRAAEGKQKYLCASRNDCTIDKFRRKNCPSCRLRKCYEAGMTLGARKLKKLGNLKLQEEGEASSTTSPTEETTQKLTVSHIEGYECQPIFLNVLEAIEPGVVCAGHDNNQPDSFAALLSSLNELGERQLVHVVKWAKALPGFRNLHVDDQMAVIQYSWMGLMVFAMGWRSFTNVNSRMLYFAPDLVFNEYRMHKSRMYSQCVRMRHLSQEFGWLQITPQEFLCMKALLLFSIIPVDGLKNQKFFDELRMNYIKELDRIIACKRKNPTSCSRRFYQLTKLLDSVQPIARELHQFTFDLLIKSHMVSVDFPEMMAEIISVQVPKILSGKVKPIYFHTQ
Compound `Oc1cccc2c1[nH]c1ccc(Cl)c(Cl)c12` has a pIC50 of 7.82. Work on `OC1(C(F)(F)F)CCCc2c1[nH]c1c(Cl)cc(Cl)c(Cl)c21` (stereo unspecified) yielded a pIC50 of less than 5.00. For `O[C@]1(C(F)(F)F)CCCc2c1[nH]c1c(Cl)cc(Cl)cc21`, the pIC50 was 7.70. `O[C@]1(C(F)(F)F)CCCc2c1[nH]c1cc(Cl)c(Cl)cc21` showed a pIC50 of 7.89. Compound `OC1(C(F)(F)F)c2[nH]c3c(Cl)cc(F)cc3c2CCC1C(F)(F)F` (stereo unspecified) has a pIC50 of less than 5.00. In the case of `OC1(C(F)(F)F)CCCc2c1[nH]c1ccc(Cl)c(Cl)c21` (stereo unspecified), the pIC50 was 4.40. With `Oc1cccc2c1[nH]c1ccc(Br)cc12` the pIC50 was 5.85. With `Oc1c(Br)ccc2c1[nH]c1cc(Cl)c(Cl)cc12` the pIC50 was 7.47. `N#Cc1ccc2[nH]c3c(O)cccc3c2c1` was tested, and the pIC50 was 5.34. Work on `OC1(C(F)(F)F)CCCc2c1[nH]c1cc(Cl)c(Cl)cc21` (stereo unspecified) yielded a pIC50 of 5.81. In the case of `O[C@@]1(C(F)(F)F)CCCc2c1[nH]c1cc(Cl)c(Cl)cc21`, the pIC50 was less than 6.00.
